27 compounds from patent US20240101570A1 (AMGEN INC., priority 2020, published 2024) can be followed below.

A value given as a limit tells only on which side of the number the result lay.

One experiment deals with HCT116 MTAP null cells. Put plainly: HCT116 MTAP null cell proliferation / viability (CellTiter-Glo, 6 days). In kind it is cell-based. The conditions noted are these: HCT116-MTAP null, 144 h, HCT116 MTAP null cells, 6 days, CellTiter-Glo; read-out: HCT-116 MTAP null IC50. Summed up:
(§1)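 IC50 values derive from sigmoidal dose-response fits, some with Hill slope fixed at −1 and top constrained to 100%, others from 4-parameter logistic models. They reflect CellTiter-Glo viability after 6 days of compound exposure at up to 10 or 50 μM.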

The next experiment deals with HCT116 WT cells. Put plainly: HCT116 WT cell proliferation / viability (CellTiter-Glo, 6 days). The settings on record: Homo sapiens, HCT-116, 144 h, HCT116 WT cells, 6 days, CellTiter-Glo; read-out: HCT-116 WT IC50. It counts as cell-based. Summed up: as §1
(In general: ATP-based viability assays read luminescence as a measure of living cells.)

For orientation: IC50 means the concentration that inhibits the measured activity by half. Regarding `CC(C)CN(Cc1ccc(C(F)(F)F)cn1)C(=O)c1ccc2nc(N)c3c(c2c1)COC3` [Example 613, 4-amino-N-(2-methylpropyl)-N-((5-(trifluoromethyl)-2-pyridinyl)methyl)-1,3-dihydrofuro[3,4-c]quinoline-8-carboxamide], the IC50 with HCT116 MTAP null cells was found to be 23 nM; in the experiment on HCT116 WT cells, 0.761 µM.

With `CCN(Cc1ccc(C(F)(F)F)cn1)C(=O)c1cc2c(cn1)nc(N)c1c(C)nn(C)c12` [Example 553, 4-amino-N-ethyl-1,3-dimethyl-N-((5-(trifluoromethyl)-2-pyridinyl)methyl)-1H-pyrazolo[4,3-c][1,7]naphthyridine-8-carboxamide], the figures for the IC50 in the experiment with HCT116 MTAP null cells and in the experiment with HCT116 WT cells were 247 nM and 12.4 µM, respectively.

With `CCN(Cc1ccc(C(F)(F)F)cn1)C(=O)c1cc2c3c(c(N)nc2cc1F)[C@H](C)OC3` [Example 557, (3S)-4-amino-N-ethyl-7-fluoro-3-methyl-N-((5-(trifluoromethyl)-2-pyridinyl)methyl)-1,3-dihydrofuro[3,4-c]quinoline-8-carboxamide], the half-inhibitory concentration (IC50) with HCT116 MTAP null cells worked out at 375 nM; in the experiment with HCT116 WT cells, 12.3 µM.

As for `C[C@H]1OCc2c1c(N)nc1cnc(C(=O)N(Cc3ccc(C(F)(F)F)cn3)C3CC3)cc21` [Example 315, (3R)-4-amino-N-cyclopropyl-3-methyl-N-((5-(trifluoromethyl)-2-pyridinyl)methyl)-1,3-dihydrofuro[3,4-c][1,7]naphthyridine-8-carboxamide], the 50% inhibitory concentration (IC50) in the experiment with HCT116 MTAP null cells is 137 nM; in the experiment on HCT116 WT cells, 11.1 µM.

On to `CCN(Cc1ccc(OC(F)F)nn1)C(=O)c1ccc2nc(N)c3c(c2c1)COC3` [Example 723, 4-amino-N-((6-(difluoromethoxy)-3-pyridazinyl)methyl)-N-ethyl-1,3-dihydrofuro[3,4-c]quinoline-8-carboxamide], for which the IC50 in the experiment with HCT116 MTAP null cells was found to be 157 nM; in the experiment with HCT116 WT cells it was 6.02 µM.

With `CN(Cc1ccc(S(F)(F)(F)(F)F)cc1)C(=O)c1cc2c(cc1F)nc(N)c1cnn(C)c12` [Example 575, 4-amino-7-fluoro-N,1-dimethyl-N-(4-(pentafluoro-lambda~6~- sulfanyl)benzyl)-1H-pyrazolo[4,3-c]quinoline-8-carboxamide], the IC50 with HCT116 MTAP null cells amounted to 12 nM; with HCT116 WT cells, 0.354 µM.

Take `Nc1nc2ccc(C(=O)N(Cc3ccc(OC(F)F)nn3)CC3CC3)cc2c2c1COC2` [Example 426, 4-amino-N-(cyclopropylmethyl)-N-((6-(difluoromethoxy)-3-pyridazinyl)methyl)-1,3-dihydrofuro[3,4-c]quinoline-8-carboxamide]: the values for the IC50 in the experiment on HCT116 MTAP null cells and with HCT116 WT cells were 96 nM and 4.22 µM, respectively.

`CN(Cc1ccc(C(F)(F)F)cn1)C(=O)c1cc2c(cc1C(F)(F)F)nc(N)c1cnn(C)c12` [Example 810, 4-amino-N,1-dimethyl-7-(trifluoromethyl)-N-((5-(trifluoromethyl)-2-pyridinyl)methyl)-1H-pyrazolo[4,3-c]quinoline-8-carboxamide]: the IC50 in the experiment with HCT116 MTAP null cells amounted to 226 nM; in the experiment with HCT116 WT cells, 13.8 µM.

As for `C[C@@H](c1ccc(F)cn1)N(C)C(=O)c1cc2c(cc1Cl)nc(N)c1cnn(C)c12` (single isomer, unassigned) [Example 594], the values for the IC50 in the experiment with HCT116 MTAP null cells and in the experiment with HCT116 WT cells were 638 nM and 29.1 µM, respectively.

For the compound `CC1OCc2c1c(N)nc1ccc(C(=O)N(Cc3ccc(C(F)(F)F)cn3)C3CCOCC3C)cc21` (stereo not drawn) [Example 901, 4-amino-3-methyl-N-(3-methyltetrahydro-2H-pyran-4-yl)-N-((5-(trifluoromethyl)pyridin-2-yl)methyl)-1,3-dihydrofuro[3,4-c]quinoline-8-carboxamide], the 50% inhibitory concentration (IC50) in the experiment with HCT116 MTAP null cells was found to be 42 nM; in the experiment on HCT116 WT cells, 0.43 µM.

On to `CO[C@@H]1CCOC[C@H]1N(Cc1ccc(C(F)(F)F)cn1)C(=O)c1ccc2nc(N)c3c(c2c1)COC3` (racemic) [Example 460, 4-amino-N-((3R,4R)-4-methoxytetrahydro-2H-pyran-3-yl)-N-((5-(trifluoromethyl)-2-pyridinyl)methyl)-1,3-dihydrofuro[3,4-c]quinoline-8-carboxamide and 4-amino-N-((3S,4S)-4-methoxytetrahydro-2H-pyran-3-yl)-N-((5-(trifluoromethyl)-2-pyridinyl)methyl)-1,3-dihydrofuro[3,4-c]quinoline-8-carboxamide], for which the IC50 is 19 nM in the experiment on HCT116 MTAP null cells and 0.287 µM with HCT116 WT cells.

`CC1OCc2c1c(N)nc1ccc(C(=O)N(Cc3ccc(C(F)(F)F)cn3)C3CC34CCCC4)cc21` (stereo not drawn) [Example 909, 4-amino-3-methyl-N-(spiro[2.4]heptan-1-yl)-N-((5-(trifluoromethyl)pyridin-2-yl)methyl)-1,3-dihydrofuro[3,4-c]quinoline-8-carboxamide]: the values for the IC50 in the experiment with HCT116 MTAP null cells and in the experiment with HCT116 WT cells were 215 nM and 8 µM, respectively.

Consider `COc1ccc(CN(C(=O)c2cc3c4c(c(N)nc3cn2)COC4)C(C)C)nc1Cl` [Example 683, 4-amino-N-((6-chloro-5-methoxy-2-pyridinyl)methyl)-N-(2-propanyl)-1,3-dihydrofuro[3,4-c][1,7]naphthyridine-8-carboxamide], for which the concentration for half-maximal inhibition (IC50) in the experiment on HCT116 MTAP null cells is 235 nM; in the experiment on HCT116 WT cells, above 10 µM.

Regarding `C[C@@H](C1CC1)N(Cc1ccc(C(F)(F)F)nn1)C(=O)c1cc2c3c(c(N)nc2cc1F)COC3` [Example 815, 4-amino-N-((1S)-1-cyclopropylethyl)-7-fluoro-N-((6-(trifluoromethyl)-3-pyridazinyl)methyl)-1,3-dihydrofuro[3,4-c]quinoline-8-carboxamide], the IC50 with HCT116 MTAP null cells was 18 nM; in the experiment on HCT116 WT cells it was 0.301 µM.

Regarding `C[C@H](c1ccc(C(F)(F)F)nn1)N(C)C(=O)c1cc2c(cc1F)nc(N)c1cnn(C)c12` (single isomer, unassigned) [Example 605], the results for the IC50 in the experiment with HCT116 MTAP null cells and in the experiment with HCT116 WT cells were 14 nM and 0.793 µM, respectively.

On to `Nc1nc2cc(F)c(C(=O)N(Cc3ccc(C(F)(F)F)nn3)C3CC3)cc2c2c1COC2` [Example 357, 4-amino-N-cyclopropyl-7-fluoro-N-((6-(trifluoromethyl)-3-pyridazinyl)methyl)-1,3-dihydrofuro[3,4-c]quinoline-8-carboxamide], for which the IC50 was 115 nM in the experiment with HCT116 MTAP null cells and 4.27 µM in the experiment with HCT116 WT cells.

Regarding `CC(C)N(C(=O)c1ccc2nc(N)c3c(c2c1)CO[C@@H]3C)[C@@H](C)c1ccc(C(F)(F)F)cn1` (single isomer, unassigned) [Example 840], the IC50 in the experiment on HCT116 MTAP null cells is 638 nM; with HCT116 WT cells it was 22.9 µM.

Regarding `CC(C)N(Cc1ccc(C#N)cn1)C(=O)c1cc2c3c(c(N)nc2cc1Cl)COC3` [Example 392, 4-amino-7-chloro-N-((5-cyano-2-pyridinyl)methyl)-N-(2-propanyl)-1,3-dihydrofuro[3,4-c]quinoline-8-carboxamide], the IC50 in the experiment on HCT116 MTAP null cells is 57 nM; in the experiment on HCT116 WT cells, 1.54 µM.

Take `Cn1ncc2c(N)nc3cc(F)c(C(=O)N(Cc4ccc(C(F)(F)F)cn4)C4CCC4)cc3c21` [Example 807, 4-amino-N-cyclobutyl-7-fluoro-1-methyl-N-((5-(trifluoromethyl)-2-pyridinyl)methyl)-1H-pyrazolo[4,3-c]quinoline-8-carboxamide]: the results for the half-inhibitory concentration (IC50) in the experiment with HCT116 MTAP null cells and in the experiment on HCT116 WT cells were 5 nM and 0.114 µM, respectively.

For `CCOc1ccc(CN(C(=O)c2ccc3nc(N)c4c(c3c2)COC4)C23CC(C2)C3)nn1` [Example 387, 4-amino-N-(bicyclo[1.1.1]pentan-1-yl)-N-((6-ethoxy-3-pyridazinyl)methyl)-1,3-dihydrofuro[3,4-c]quinoline-8-carboxamide], the IC50 in the experiment on HCT116 MTAP null cells is 175 nM; in the experiment with HCT116 WT cells it was 4.04 µM.

Consider `CN(Cc1ccc(C(F)(F)F)nc1)C(=O)c1ccc2nc(N)c3c(c2c1)COC3` [Example 400, 4-amino-N-methyl-N-((6-(trifluoromethyl)-3-pyridinyl)methyl)-1,3-dihydrofuro[3,4-c]quinoline-8-carboxamide], for which the IC50 is 970 nM in the experiment with HCT116 MTAP null cells and above 10 µM with HCT116 WT cells.

In the case of `CC(C)N(Cc1ccc(C(F)(F)F)nn1)C(=O)c1cc2c3c(c(N)nc2cc1Cl)COC3` [Example 394, 4-amino-7-chloro-N-(2-propanyl)-N-((6-(trifluoromethyl)-3-pyridazinyl)methyl)-1,3-dihydrofuro[3,4-c]quinoline-8-carboxamide], the IC50 stood at 30 nM in the experiment on HCT116 MTAP null cells and 0.831 µM in the experiment on HCT116 WT cells.

Turning to `C[C@H](c1ccc(C(F)(F)F)nn1)N(C)C(=O)c1ccc2nc(N)c3c(c2c1)CO[C@@H]3C` (single isomer, unassigned) [Example 856], the IC50 with HCT116 MTAP null cells worked out at 87 nM; in the experiment with HCT116 WT cells, 8.48 µM.

Regarding `CC(C)N(C(=O)c1cc2c3c(c(N)nc2cc1Cl)COC3)[C@H](C)c1ccc(C(F)(F)F)cn1` (single isomer, unassigned) [Example 845], the IC50 with HCT116 MTAP null cells turned out to be 105 nM; in the experiment with HCT116 WT cells, 2.24 µM.

Take `CN(Cc1ccc(C(F)F)cn1)C(=O)c1ccc2nc(N)c3cnn(C)c3c2c1` [Example 524, 4-amino-N-((5-(difluoromethyl)-2-pyridinyl)methyl)-N,1-dimethyl-1H-pyrazolo[4,3-c]quinoline-8-carboxamide]: the figures for the IC50 in the experiment on HCT116 MTAP null cells and in the experiment with HCT116 WT cells were 183 nM and 16.4 µM, respectively.

As to `C[C@@H]1OCc2c1c(N)nc1cnc(C(=O)N(Cc3ccc(C4CC4)cn3)C3CC3)cc21` [Example 417, (3S)-4-amino-N-cyclopropyl-N-((5-cyclopropyl-2-pyridinyl)methyl)-3-methyl-1,3-dihydrofuro[3,4-c][1,7]naphthyridine-8-carboxamide], the results for the IC50 in the experiment on HCT116 MTAP null cells and in the experiment on HCT116 WT cells were 5610 nM and 17.6 µM, respectively.

`Cn1ncc2c(N)nc3cc(F)c(C(=O)N(Cc4ccc(C(F)(F)F)nn4)C4CC4)cc3c21` [Example 804, 4-amino-N-cyclopropyl-7-fluoro-1-methyl-N-((6-(trifluoromethyl)-3-pyridazinyl)methyl)-1H-pyrazolo[4,3-c]quinoline-8-carboxamide]: the IC50 in the experiment on HCT116 MTAP null cells worked out at 26 nM; in the experiment with HCT116 WT cells it was 1.8 µM.
